Source: patent US8877946B2, “Benzylidene-indolinone compounds and their medical use” (National University of Singapore, priority 2011, dated 2014)
Converted amounts (≈) assume the structure as drawn. Read-outs that look alike come from different tables or passages of the source.

Experiments:
HuH7 cells = test: MTT antiproliferative (growth inhibition) assay on HuH7 cells; type: cell-based, human; conditions: for IC50: Homo sapiens, Huh-7, MTT
Excerpt: (§1) MTT was purchased from DUCHEFA Biochemie ([…]). Sunitinib, and sodium dodecyl sulfate, bovine serum albuminwere obtained from Sigma Aldrich (Singapore). Sorafenib was purchase from Ontario Chem. Fetal bovine serum (FBS) was obtained from Invitrogen. Human hepatocellular carcinoma cells (HuH-7 and Hep G2), and human diploid fibroblast strain (IMR 90). HuH7 was obtained as gifts from Dr Ho Han Kiat, Department of Pharmacy, NUS. IMR90 and Hep G2 were purchased from American Type Culture Collection (ATCC). HuH-7 cells were cultured in DMEM (Dulbecco's Modified Eagle Medium, high glucose) with 10% v/v fetal bovine serum (FBS), 100 mg/L penicillin G and 100 mg/L streptomycin. IMR 90 cell were cultured in EMEM (Eagle's Minimum Essential Medium), with 10% v/v FBS and 100 mg/L penicillin G and 100 mg/L streptomycin. The cells were sub-cultured when HuH7 or Hep G2 reached a density of 70-80×10^5 cell/T75 flask, and IMR 90 reached 20×10^5 cell/T75 flask. Cells were used within 2-10 passages for viability experiments.
(§2) The anti-proliferative activity of the test compounds were determined by the MTT assay. An aliquot (200 μL, 3×10^4 cells/mL for HuH7, 3.75×10^4 cells/mL for Hep G2, and 2×10^4 cells/mL for IMR 90) of medium was added to each well of the microtitre plate. […] The existing medium was removed from each well and replaced by fresh medium (200 μL) containing a known concentration of test compound. The final concentration of DMSO in each well was maintained at 0.5% v/v. (1% v/v was also utilized if the compounds were not soluble) The test compounds were incubated with the cells for another 72 h at 37 deg C., 5% CO2. The medium was then removed from the well and replaced with FBS free medium (200 μL) and MTT (50 μL of 2 mg/mL solution in phosphate buffer saline, pH 7.4). The phosphate buffer saline comprises 10 mM of potassium phosphate and 137 mM sodium chloride. After incubation (3 h) at 37 deg C., 5% CO2, the supernatant was removed and a solution of 200 μL DMSO and 25 μL Sorenson buffer (0.1 M glycine, 0.1 M sodium chloride, adjusted to pH 10.5 with 0.1 M sodium hydroxide) was added to dissolve the formazan crystals in each well. Vehicle control were cells grown in 1% v/v DMSO/Medium for 72 h, 37 deg C., 5% CO2 while blank controls were wells that contained only 200 μL DMSO and 25 μL Sorenson buffer. Absorbances were measured at 570 nm on a microplate reader (Tecan, Infinite 200). The viability of cells at a given concentration of test compound was determined from the expression:
(§3) [formula] where abs_compound=absorbance of wells containing cells and test compound, abs_vehicle (Not the same as above. Change to abs_vehicle)=absorbance of vehicle control and abs_blank=absorbance of blank control.
(§4) Each concentration of test compound was evaluated at least 3 times on separate occasions, and two different stock solution were used. The IC50 value (concentration that inhibited 50% of cell growth) was determined from the sigmoidal curve obtained by plotting percentage viability versus logarithmic concentration of test compound using GraphPad Prism 5 (San Diego, USA).

Hep G2 = test: MTT antiproliferative assay on Hep G2 cells; type: cell-based; conditions: Homo sapiens, HepG2, 72 h
Excerpt: as §1, §2, §3, §4

IMR 90 = test: MTT antiproliferative assay on non-malignant IMR 90 fibroblasts; type: cell-based; conditions: non-malignant human lung fibroblast IMR 90, MTT, 72 h
Excerpt: as §1, §2, §3, §4

CYP1A1 = test: EROD assay, induction of CYP1A1 activity in HuH7 cells; type: cell-based, human; conditions: broad range of concentrations spanning growth inhibitory concentrations, FIG. 2
Excerpt: The induction of CYP1A1 activity was monitored by the 7-ethoxyresorufin O-deethylase (EROD) assay. EROD is a CYP1A1 enzyme and induction of its activity would result in the formation of more resorufin, a fluorescent compound. By monitoring resorufin levels in cells that are exposed to test compound and comparing the levels with those in untreated cells, it is possible to identify compounds that induce EROD activity.
Readings were taken at λexcitation of 530 nm and λemission of 590 nm on a fluorometer (Name the plate reader). Background fluorescence of the test compound was determined at the same wavelengths to take into account its contribution to the observed readings. Readings of “blank” wells that contained only media and “control” wells with only HuH7 cells in media (with 1% DMSO) were also determined. β-napthoflavone (BNF), a known inducer of CYP1A1 activity (give ref) was used as a positive control. The extent to which EROD activity was induced is given by the expression: Degree of induction=(FCells+Test Compound−FBlank)/(FControl−FBlank)
Where Fcells+test compound=fluorescence of wells containing treated cells; FBlank=fluorescence of well containing media only; FControl=fluorescence readings of wells containing untreated cells. The test compounds were not fluorescent at the excitation and emission wavelengths used in this assay. Two separate determinations were made for each concentration of test compound.

[1] = Aqueous solubility on Multiscreen Solubility filter plates; type: physicochemical; conditions: aqueous solution on Multiscreen Solubility filter plates, aqueous buffer, kinetic from dmso stock, mean of 3 determinations
Protocol: (§5) Solubility and PAMPA permeability (Pe) are important physicochemical indicators of drug-like character. Determination of aqueous solubility was carried out on Multiscreen® Solubility filter plates (Millipore-MSSLBPC10) from Millipore Corporation (MA, USA). The protocol (PC2445EN00, Millipore Corporation) was followed. Pe determinations were carried out on MultiScreen-IP PAMPA assay (donor) plates (MAIPNTR10) and MultiScreen Receiver Plates (MATRNPS50) from Millipore Corporation (USA) with 1% lecithin (L-α-phosphatidylcholine from lyophilized powder of egg yolk, Sigma Aldrich, USA) in dodecane (ReagentPlus®, Sigma Aldrich, USA) as lipid barrier.

PAMPA permeability (Pe) = type: physicochemical; conditions: for Pe (×10^−6 cm/s): 1% lecithin in dodecane, mean of 3 determinations
Protocol: as §5

[2] = 72 h (Table 9), read-out: IC50 (μM) HuH7
[3] = 72 h incubation, mean and SD of 3 or more independent determinations (Tables 1-8), read-out: IC 50

Row | IC50 (HuH7 cells; [2]) | IC50 (HuH7 cells; [3]) | SMILES | IC50 (Hep G2) | IC50 (IMR 90) | also measured
1 | 0.82 ± 0.2 µM | 0.82 ± 0.2 µM | O=C1Nc2cc(F)c(F)cc2/C1=C\c1cccc(C(F)(F)F)c1 [Compound 7-6, (E)-5,6-Difluoro-3-(3-trifluoromethyl-benzylidene)-1,3-dihydro-indol-2-one] | 0.69 ± 0.02 µM | 8.53 ± 0.6 µM | –
2 | 1.18 ± 0.02 µM | 1.18 ± 0.02 µM | CNS(=O)(=O)c1cccc(/C=C2/C(=O)Nc3ccc(F)cc32)c1 [Compound 4-16, (E)-3-(5-Fluoro-2-oxo-1,2-dihydro-indol-3-ylidenemethyl)-N-methyl-benzenesulphonamide] | 9.11 ± 0.32 µM | 9.92 ± 0.57 µM | –
3 | 0.12 ± 0.01 µM | 0.12 ± 0.01 µM | CCCNS(=O)(=O)c1cccc(C=C2C(=O)Nc3cc(F)ccc32)c1 [Compound 3-12, E/Z-3-(6-Fluoro-2-oxo-1,2-dihydro-indol-3-ylidenemethyl)-N-propyl-benzenesulfonamide] | 0.72 ± 0.12 µM | – | potency relative to 1-10 on HuH7 (HuH7 cells; compared with 1-10 (original lead)): 4 ×
4 | 2.29 ± 0.06 µM | 2.29 ± 0.06 µM | CC(C)NS(=O)(=O)c1cccc(/C=C2/C(=O)Nc3cc(F)ccc32)c1 [Compound 3-13, (E)-3-(6-Fluoro-2-oxo-1,2-dihydro-indol-3-ylidenemethyl)-N-isopropyl-benzenesulfonamide] | 4.22 ± 0.48 µM | – | –
5 | 1.93 ± 0.34 µM | 1.93 ± 0.34 µM | CC(C)NS(=O)(=O)c1cccc(C=C2C(=O)Nc3cc(Cl)ccc32)c1 [Compound 1-24, E/Z 3-(6-Chloro-2-oxo-1,2-dihydro-indol-3-ylidenemethyl)-N-isopropyl-benzenesulfonamide] | 5.46 ± 0.95 µM | – | –
6 | 5.6 ± 0.12 µM | – | CCN(CC)CCNC(=O)c1c(C)[nH]c(/C=C2\C(=O)Nc3ccc(F)cc32)c1C [sunitinib, reference compound] | 5.07 ± 0.07 µM | 6.32 ± 1.24 µM | –
7 | 0.48 ± 0.01 µM | 0.48 ± 0.01 µM | CNS(=O)(=O)c1cccc(/C=C2/C(=O)Nc3cc(F)ccc32)c1 [Compound 3-10, (E)-3-(6-Fluoro-2-oxo-1,2-dihydro-indol-3-ylidenemethyl)-N-methyl-benzenesulphonamide] | 4.4 ± 0.43 µM | 10.4 ± 0.23 µM | induction of CYP450 (CYP1A1, EROD) activity (CYP1A1): did not induce CYP450 activity; solubility at 3 h ([1]; pH 7.4, agitation time 3 h): 37.6 µM (≈ 12.5 µg/mL); solubility at 24 h ([1]; pH 7.4, agitation time 24 h): 6.32 µM (≈ 2.1 µg/mL); decline of Pe with time (PAMPA permeability (Pe); 6 h to 16 h): ½; Pe (×10^−6 cm/s) (PAMPA permeability (Pe); pH 7.4, 6 h): 12.9 ×10^−6 cm/s; Pe (×10^−6 cm/s) (PAMPA permeability (Pe); pH 7.4, 16 h): 5.95 ×10^−6 cm/s
8 | 0.84 ± 0.09 µM | 0.84 ± 0.09 µM | CCNS(=O)(=O)c1cccc(/C=C2/C(=O)Nc3cc(Cl)ccc32)c1 [Compound 1-22, (E)-3-(6-Chloro-2-oxo-1,2-dihydro-indol-3-ylidenemethyl)-N-ethyl-benzenesulfonamide] | 3.96 ± 0.55 µM | – | –
9 | 15.3 ± 0.6 µM | 15.3 ± 0.6 µM | CNS(=O)(=O)c1ccc(/C=C2/C(=O)Nc3cc(Cl)ccc32)cc1 [Compound 1-21, (E)-4-(6-Chloro-2-oxo-1,2-dihydro-indol-3-ylidenemethyl)-N-methyl-benzenesulfonamide] | > 30 µM | – | –
10 | 0.36 ± 0.04 µM | 0.36 ± 0.04 µM | CCCNS(=O)(=O)c1cccc(C=C2C(=O)Nc3cc(Cl)ccc32)c1 [Compound 1-23, E/Z-3-(6-Chloro-2-oxo-1,2-dihydro-indol-3-ylidenemethyl)-N-propyl-benzenesulfonamide] | 1.51 ± 0.11 µM | – | –
11 | 0.91 ± 0.15 µM | 0.91 ± 0.15 µM | O=C1Nc2cc(F)ccc2/C1=C\c1ccccc1F [Compound 3-2, (E)-6-Fluoro-3-(2-fluoro-benzylidene)-1,3-dihydro-indol-2-one] | 1.82 ± 0.63 µM | 2.06 ± 0.33 µM | –
12 | 0.39 ± 0.07 µM | 0.39 ± 0.07 µM | CCNS(=O)(=O)c1cccc(/C=C2/C(=O)Nc3cc(F)ccc32)c1 [Compound 3-11, (E)-3-(6-Fluoro-2-oxo-1,2-dihydro-indol-3-ylidenemethyl)-N-ethyl-benzenesulfonamide] | 1.61 ± 0.16 µM | – | –
13 | – | 11 ± 0.28 µM | Cc1cccc(/C=C2/C(=O)Nc3cc(Cl)ccc32)c1 [Compound 1-5, (E)-6-Chloro-3-(3-methyl-benzylidene)-1,3-dihydro-indol-2-one] | – | – | –
14 | – | > 30 µM | O=C1Nc2ccc(Cl)cc2/C1=C\c1ccccc1C(F)(F)F [Compound 2-6, (E)-5-Chloro-3-(2-trifluoromethylbenzylidene)-1,3-dihydro-indol-2-one] | – | – | –
15 | 0.81 ± 0.11 µM | 0.81 ± 0.11 µM | O=C1Nc2ccc(Cl)cc2/C1=C\c1cccc(C(F)(F)F)c1 [Compound 2-7, (E)-5-Chloro-3-(3-(trifluoromethyl)benzylidene)-1,3-dihydro-indol-2-one, reference compound] | 1.5 ± 0.06 µM | 9.13 ± 1.12 µM | –
16 | – | 12.9 ± 0.95 µM | O=C1Nc2cc(Cl)ccc2/C1=C\c1ccc(F)cc1 [Compound 1-4, (E)-6-Chloro-3-(4-fluoro-benzylidene)-1,3-dihydro-indol-2-one] | – | – | –
17 | – | 4.04 ± 0.54 µM | O=C1Nc2ccc(F)cc2/C1=C\c1cccc(C(F)(F)F)c1 [Compound 4-10, (E)-5-Fluoro-3-(3-trifluoromethyl-benzylidene)-1,3-dihydro-indol-2-one, reference compound] | – | – | –
18 | – | > 30 µM | COc1ccc(/C=C2/C(=O)Nc3cc(Cl)ccc32)cc1 [Compound 1-8, (E)-6-Chloro-3-(4-methoxy-benzylidene)-1,3-dihydro-indol-2-one] | – | – | –
19 | – | 5.36 ± 0.14 µM | COc1ccc2c(c1)NC(=O)/C2=C/c1ccc(F)cc1 [Compound 5-4, (E)-3-(4-Fluorobenzylidene)-6-methoxy-1,3-dihydro-indol-2-one] | – | – | –
20 | 5.35 ± 0.49 µM | – | CNC(=O)c1cc(Oc2ccc(NC(=O)Nc3ccc(Cl)c(C(F)(F)F)c3)cc2)ccn1 [Sorafenib, reference compound] | 5.6 ± 0.21 µM | 11 ± 1.72 µM | –
